# Where a SMILES comes first, the peptide text is derived from it.
# Molecular target: SARS2 M^pro (Severe acute respiratory syndrome coronavirus 2, UniProt P0DTD1, P3395H)
# Type: biochemical, SARS-CoV-2
SMILES,% inhibition (20 µM) biochemical [%],M^pro inhibition activity (in words)
"CCN1C(=O)C(=O)c2cc(Cl)ccc21 [MWAC-0001750, CCN1C(=O)C(=O)c2cc(Cl)ccc12]",10,
"COC(=O)c1ccc(C(=O)Nc2ccccc2N)cc1 [MWAC-0001884, COC(=O)c1ccc(cc1)C(=O)Nc2ccccc2N]",0,
"Cc1ccc(NC(=S)Nc2ccccc2)nc1 [MWAC-0001820, Cc1ccc(NC(=S)Nc2ccccc2)nc1]",2.27,
"CCOc1ccccc1C1Nc2ccccc2NC2=C1C(=O)CC(c1ccc3c(c1)OCO3)C2 (centres unmarked) [MWAC-0001720, CCOc1ccccc1C2Nc3ccccc3NC4=C2C(=O)CC(C4)c5ccc6OCOc6c5]",0,
"COCCNc1nc2cc(C)ccc2[nH]1 [MWAC-0001822, COCCNc1nc2cc(C)ccc2[nH]1]",3,
"CSCCC(C=O)NC(=O)C(CC(C)C)NC(=O)C(CC(C)C)NC(C)=O (stereo not drawn) [MWAC-0001889, CSCCC(NC(=O)C(CC(C)C)NC(=O)C(CC(C)C)NC(=O)C)C=O] (Ac-Leu-Leu-Met-aldehyde; configuration not given here)",99,
"O=C1/C(=C/c2ccc(F)cc2)SC(=S)N1Cc1cccnc1 [MWAC-0001802, Fc1ccc(\C=C\2/SC(=S)N(Cc3cccnc3)C2=O)cc1]",7,
"O=C1N(Cc2ccccc2)c2ccccc2C12NNc1ccccc1O2 (centres unmarked) [MWAC-0001855, O=C1N(Cc2ccccc2)c3ccccc3C14NNc5ccccc5O4]",2.76,
"CN1C(=O)C(O)(CC(=O)c2ccco2)c2cc(Cl)ccc21 (centres unmarked) [MWAC-0001773, CN1C(=O)C(O)(CC(=O)c2occc2)c3cc(Cl)ccc13]",0.63,
"CCOc1ccccc1OCC(=O)N/N=C/c1cc(C)ccc1O [MWAC-0001844, CCOc1ccccc1OCC(=O)N\N=C\c2cc(C)ccc2O]",21,
"Nc1c(C(=O)c2ccccc2)sc2nc3c(cc12)CCC3 [MWAC-0001815, Nc1c(sc2nc3CCCc3cc12)C(=O)c4ccccc4]",27,
"COc1cccc(-c2cc(C(=O)N3CCCCC3C)no2)c1 (centres unmarked) [MWAC-0001739, COc1cccc(c1)c2onc(c2)C(=O)N3CCCCC3C]",2.35,
"O=C(Nc1ccc(-c2cscn2)cc1)C1CCCN(Cc2ccccc2)C1 (centres unmarked) [MWAC-0001767, O=C(Nc1ccc(cc1)c2cscn2)C3CCCN(Cc4ccccc4)C3]",3.2,
"O=C(CN1C(=O)C(=O)N(Cc2ccccc2)C1=O)Nc1cc(Cl)cc(Cl)c1 [MWAC-0001847, Clc1cc(Cl)cc(NC(=O)CN2C(=O)N(Cc3ccccc3)C(=O)C2=O)c1]",0.75,
"O=Cc1cc(Cl)ccc1OCC(=O)Nc1ccc(F)cc1 [MWAC-0001783, Fc1ccc(NC(=O)COc2ccc(Cl)cc2C=O)cc1]",4,
"C=CCN1C(=O)C(O)(CC(=O)c2cccc(OC)c2)c2cc(Br)ccc21 (centres unmarked) [MWAC-0001778, COc1cccc(c1)C(=O)CC2(O)C(=O)N(CC=C)c3ccc(Br)cc23]",2.82,
"CCOc1cc(S(=O)(=O)N2c3ccccc3CC2C)ccc1Cl (centres unmarked) [MWAC-0001761, CCOc1cc(ccc1Cl)S(=O)(=O)N2C(C)Cc3ccccc23]",8,
"S=C(c1ccc(-c2cccc(Cl)c2)o1)N1CCCCC1 [MWAC-0001879, Clc1cccc(c1)c2oc(cc2)C(=S)N3CCCCC3]",0,
"O=C1C(=O)N(Cc2ccc([N+](=O)[O-])cc2)c2ccc(Br)cc21 [MWAC-0001727, [O-][N+](=O)c1ccc(CN2C(=O)C(=O)c3cc(Br)ccc23)cc1]",65,

SMILES,% inhibition (20 µM) biochemical [%],M^pro inhibition activity (in words)
"O=C(CCl)NC(NC(=O)CCl)c1ccccc1F [MWAC-0001862, Fc1ccccc1C(NC(=O)CCl)NC(=O)CCl]",40,
"Cc1ccc2nc(-c3ccc(NC(=O)CCOc4ccccc4)cc3)sc2c1 [MWAC-0001713, Cc1ccc2nc(sc2c1)c3ccc(NC(=O)CCOc4ccccc4)cc3]",14,
"CC(NC(=O)CCl)C1COc2ccccc2O1 (centres unmarked) [MWAC-0001857, CC(NC(=O)CCl)C1COc2ccccc2O1]",26,
"COc1cccc(C(=O)NN2C(=S)N(c3ccccc3)C(=O)C2CC(N)=O)c1 (centres unmarked) [MWAC-0001743, COc1cccc(c1)C(=O)NN2C(CC(=O)N)C(=O)N(C2=S)c3ccccc3]",6,
"O=C1CSC(=S)N1Cc1cccnc1 [MWAC-0001797, O=C1CSC(=S)N1Cc2cccnc2]",7,
"CCOC(=O)c1sc(NC(=O)c2sccc2C)cc1C [MWAC-0001852, CCOC(=O)c1sc(NC(=O)c2sccc2C)cc1C]",10,
"Cc1ccccc1OCCOc1ccccc1/C=N/n1cnnc1 [MWAC-0001810, Cc1ccccc1OCCOc2ccccc2\C=N\n3cnnc3]",5,
"COc1cc(C#N)ccc1OCc1ccc(Cl)cc1 [MWAC-0001772, COc1cc(ccc1OCc2ccc(Cl)cc2)C#N]",0.301,
"O=C(C[S+]([O-])c1ccc(C(F)(F)F)cc1[N+](=O)[O-])OCc1ccccc1 (centres unmarked) [MWAC-0001780, [O-][N+](=O)c1cc(ccc1S(=O)CC(=O)OCc2ccccc2)C(F)(F)F]",4,
"COc1ccc(CC(=O)N2CCC3(CC2)NC(=O)c2cc(Br)ccc2N3)cc1 [MWAC-0001841, COc1ccc(CC(=O)N2CCC3(CC2)NC(=O)c4cc(Br)ccc4N3)cc1]",0,
"CCCCS(=O)(=O)N(O)c1ccc(Cl)cc1 [MWAC-0001856, CCCCS(=O)(=O)N(O)c1ccc(Cl)cc1]",4,
"O=C(Nc1ccccc1O)c1ccc(Cl)c([N+](=O)[O-])c1 [MWAC-0001814, Oc1ccccc1NC(=O)c2ccc(Cl)c(c2)[N+](=O)[O-]]",2.59,
"COc1ccc(CC(=O)NCc2ccccc2Cl)cc1 [MWAC-0001807, COc1ccc(CC(=O)NCc2ccccc2Cl)cc1]",1,
"O=C1NC(=S)NC(=O)C1=Cc1cccc(OS(=O)(=O)c2ccc3ccccc3c2)c1 [MWAC-0001766, O=C1NC(=S)NC(=O)C1=Cc2cccc(OS(=O)(=O)c3ccc4ccccc4c3)c2]",15,
"COc1ccc2c(=O)cc(-c3ccc4c(c3)OCCO4)oc2c1 [MWAC-0001860, COc1ccc2C(=O)C=C(Oc2c1)c3ccc4OCCOc4c3]",100,
"O=C(CC(SCc1ccco1)c1ccc(Cl)cc1)c1cccs1 (centres unmarked) [MWAC-0001874, Clc1ccc(cc1)C(CC(=O)c2cccs2)SCc3occc3]",0,
"Cc1ccc(/C=C/C(=O)Nc2ccccc2Br)o1 [MWAC-0001759, Cc1oc(\C=C\C(=O)Nc2ccccc2Br)cc1]",15,
"Cc1cc(=O)oc2c(C)c(OCc3ccccc3)ccc12 [MWAC-0001732, CC1=CC(=O)Oc2c(C)c(OCc3ccccc3)ccc12]",7,
"COc1ccc(C(=O)Nc2ccccc2N)cc1 [MWAC-0001806, COc1ccc(cc1)C(=O)Nc2ccccc2N]",1,

SMILES,% inhibition (20 µM) biochemical [%],M^pro inhibition activity (in words)
"Cc1noc(N)c1C(=O)Nc1ccc(C(C)(C)C)cc1 [MWAC-0001886, Cc1noc(N)c1C(=O)Nc2ccc(cc2)C(C)(C)C]",0,
"CC(=O)Nc1cccc(-c2nc3cc(Cl)ccc3o2)c1 [MWAC-0001758, CC(=O)Nc1cccc(c1)c2oc3ccc(Cl)cc3n2]",14,
"Cc1ccccc1-c1noc(-c2ccc(O)cc2)n1 [MWAC-0001749, Cc1ccccc1c2noc(n2)c3ccc(O)cc3]",9,
"O=C(COc1ccccc1)Nc1scc(-c2ccccc2)c1C(=O)NCc1ccco1 [MWAC-0001777, O=C(COc1ccccc1)Nc2scc(c3ccccc3)c2C(=O)NCc4occc4]",3.67,
"COc1ccc(-c2cc(=O)c3ccccc3s2)cc1 [MWAC-0001878, COc1ccc(cc1)C2=CC(=O)c3ccccc3S2]",0,
"COc1cc(OC)cc(C(=O)Nc2ccc(OC(C)C)cc2)c1 [MWAC-0001801, COc1cc(OC)cc(c1)C(=O)Nc2ccc(OC(C)C)cc2]",5,
"CCOc1ccc2nc(NC(=O)C3CC3)sc2c1 [MWAC-0001795, CCOc1ccc2nc(NC(=O)C3CC3)sc2c1]",8,
"C#CCN1C(=O)C(O)(CC(=O)c2ccc(Cl)cc2)c2ccccc21 (centres unmarked) [MWAC-0001731, OC1(CC(=O)c2ccc(Cl)cc2)C(=O)N(CC#C)c3ccccc13]",5,
Cc1cccc(OCCNC(=O)C(C)Cl)c1 (centres unmarked),,lost all activity
"COC(=O)CSC1=C(C#N)C(c2ccccc2OC)CC(=O)N1 (centres unmarked) [MWAC-0001735, COC(=O)CSC1=C(C#N)C(CC(=O)N1)c2ccccc2OC]",4.32,
"CN(C)c1ccc(/C=N\Nc2cn[nH]c(=O)c2Cl)cc1 [MWAC-0001746, CN(C)c1ccc(\C=N/NC2=C(Cl)C(=O)NN=C2)cc1]",15,
"CCOCCCNC(=O)c1ccc(Cl)c([N+](=O)[O-])c1 [MWAC-0001781, CCOCCCNC(=O)c1ccc(Cl)c(c1)[N+](=O)[O-]]",0,
"Cc1cc(I)cnc1NC(=S)NC(=O)c1ccco1 [MWAC-0001789, Cc1cc(I)cnc1NC(=S)NC(=O)c2occc2]",2.41,
"O=S(=O)(O)CCCN1/C(=C/C=C2\CCC(/C=C/c3sc4ccccc4[n+]3CCCS(=O)(=O)O)=C2N(c2ccccc2)c2ccccc2)Sc2ccccc21 [MWAC-0001204, OS(=O)(=O)CCCN1\C(=C\C=C\2/CCC(=C2N(c3ccccc3)c4ccccc4)\C=C\c5sc6ccccc6[n+]5CCCS(=O)(=O)O)\Sc7ccccc17]",8,
"COc1cc(CSc2nnc[nH]2)c(OC)cc1CSc1nnc[nH]1 [MWAC-0001824, COc1cc(CSc2nnc[nH]2)c(OC)cc1CSc3nnc[nH]3]",0,
"O=C(CC1(O)C(=O)Nc2ccc(I)cc21)c1cccs1 (centres unmarked) [MWAC-0001763, OC1(CC(=O)c2cccs2)C(=O)Nc3ccc(I)cc13]",6.56,
"CC1=C(C(=O)OC(C)C)C(c2ccsc2)C2=C(CC(c3cccs3)CC2=O)N1 (centres unmarked) [MWAC-0001728, CC(C)OC(=O)C1=C(C)NC2=C(C1c3ccsc3)C(=O)CC(C2)c4cccs4]",0,
"CCOC(=O)C(=O)Nc1sc(C(=O)Nc2cccc(Cl)c2)c(C)c1C(=O)OC [MWAC-0001843, CCOC(=O)C(=O)Nc1sc(C(=O)Nc2cccc(Cl)c2)c(C)c1C(=O)OC]",5.71,

# Reference: PMC11550483 (2024)
